Assay results as given in patent US20190053492A1, “SUBSTITUTED PYRIDINE COMPOUNDS AS PESTICIDES” (Bayer CropScience Aktiengesellschaft, priority 2016, published 2019).
Like-named read-outs stand apart in the source and are kept apart here.

What was measured:
[1] = log P by HPLC on reversed-phase column (C 18), EEC Directive 79/831 Annex V.A8; assay type: physicochemical; settings: 55° C.; for LOGP_HCOOH: log P (HCOOH); for chromatographic logP: reversed-phase HPLC column (C 18)
Description: Temperature: 55° C. […] Called log P (HCOOH) in the table. […] Called log P (neutral) in the table.

[2] = system: Lucilia cuprina; assay: Lucilia cuprina test; assay type: in vivo; settings: application rate 100 ppm, after 2 days, L1 larvae
Description: Lucilia cuprina Test Solvent: dimethyl sulphoxide To produce a suitable active ingredient formulation, 10 mg of active ingredient are mixed with 0.5 ml of dimethyl sulphoxide, and the concentrate is diluted with water to the desired concentration. About 20 L1 larvae of the Australian sheep blowfly (Lucilia cuprina) are transferred into a test vessel containing minced horsemeat and the active ingredient formulation of the desired concentration. After 2 days, the kill in % is determined. 100% means that all the larvae have been killed; 0% means that no larvae have been killed.

[3] = system: Spodoptera frugiperda; assay: Spodoptera frugiperda spray test; assay type: in vivo; settings: after 7 days, maize leaf discs; for pest or weed control at 100 g/ha / pest or weed control at 500 g/ha: Spodoptera frugiperda, foliar, 168 h, read-out: efficacy (caterpillars killed)
Summary of the method: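 Maize leaf discs were sprayed with compound formulated in acetone/DMF and emulsifier-containing water, dried, then infested with Spodoptera frugiperda caterpillars. Percent kill was scored after 7 days, from 100% (all dead) to 0% (none dead).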

[4] = system: Phaedon cochleariae; assay: Phaedon cochleariae spray test; assay type: in vivo; settings: after 7 days, Chinese cabbage leaf discs; for pest or weed control at 100 g/ha / pest or weed control at 500 g/ha: Phaedon cochleariae, foliar, 168 h, read-out: efficacy (beetle larvae killed)
Summary of the method: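 Chinese cabbage leaf discs sprayed with compound in acetone/DMF and emulsifier-containing water, then infested with mustard beetle larvae once dry. Efficacy in % scored after 7 days (100% = all larvae killed, 0% = none).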

[5] = system: Ctenocephalides felis; assay: Ctenocephalides felis oral test; assay type: in vivo; settings: application rate 100 ppm in citrated cattle blood, after 2 days, adult cat fleas; for pest or weed control at 100 ppm: Ctenocephalides felis, po, 48 h, read-out: efficacy (kill in %)
Description: Ctenocephalides felis—Oral Test Solvent: dimethyl sulphoxide To produce a suitable active ingredient formulation, 10 mg of active ingredient are mixed with 0.5 ml of dimethyl sulphoxide. Dilution with citrated cattle blood gives the desired concentration. About 20 unfed adult cat fleas (Ctenocephalides felis) are placed into a chamber which is closed at the top and bottom with gauze. A metal cylinder whose bottom end is closed with parafilm is placed onto the chamber. The cylinder contains the blood/active ingredient formulation, which can be imbibed by the fleas through the parafilm membrane. After 2 days, the kill in % is determined. 100% means that all of the fleas have been killed; 0% means that none of the fleas have been killed.

[6] = acidic range at pH 2.7, 0.1% aqueous formic acid and acetonitrile, HPLC on reversed-phase column (C 18)
[7] = log P, neutral range, HPLC on reversed-phase column (C 18)
[8] = acidic range pH 2.7, 0.1% aqueous formic acid and acetonitrile, reversed-phase column (C 18)
[9] = pH 2.7, LC-MS acidic range, pH 2.7, 0.1% formic acid/acetonitrile, read-out: log P (acidic) / log P (HCOOH)

Compound	LOGP_HCOOH [1, 6]	LOGP_NEUTRAL [1, 7]	LOGP_HCOOH [1, 8]	chromatographic logP [1, 9]	chromatographic logP ([1]; pH 7.8, LC-MS neutral range, pH 7.8, ammonium hydrogencarbonate/acetonitrile, read-out: log P (neutral))	LOGP_NEUTRAL ([1]; log P (neutral), HPLC reversed-phase column (C 18))	efficacy (kill in %) [2]	efficacy (caterpillars killed) ([3]; application rate 100 g/ha)	efficacy (caterpillars killed) ([3]; application rate 500 g/ha)	efficacy (beetle larvae killed) ([4]; application rate 100 g/ha)	efficacy (beetle larvae killed) ([4]; application rate 500 g/ha)	efficacy (kill in %) [5]	pest or weed control at 100 g/ha ([3]; application rate 100 g/ha)	pest or weed control at 500 g/ha ([3]; application rate 500 g/ha)	pest or weed control at 100 g/ha ([4]; application rate 100 g/ha)	pest or weed control at 500 g/ha ([4]; application rate 500 g/ha)	pest or weed control at 100 ppm [5]
N#Cc1ccc(CNC(=O)c2cc(-c3ccc(S(=O)(=O)C(F)(F)F)cc3)cc(NC(=O)C3CC3)n2)cc1F [Example I-120]	3.74	3.65					100%	100%	100%	100%	100%	100%					
Cc1cc(-c2cc(NC(=O)C3CC3)nc(C(=O)NCc3ccc(C#N)cc3)c2)ccc1OC(F)(F)F [Example I-098]		4.11	4.21				100%	100%	100%	100%	100%	100%					
N#Cc1ccc(CNC(=O)c2cc(-c3ccc(SC(F)(F)C(F)F)cc3)cc(NC(=O)C3CC3)n2)cc1 [Example I-178, N-(4-Cyanobenzyl)-6-[(cyclopropylcarbonyl)amino]-4-{4-[(1,1,2,2-tetrafluoroethyl)sulphanyl]phenyl}pyridine-2-carboxamide]	3.81			3.81			100%						100%	100%	100%	100%	100%
O=C(NC1CC1)c1cc(-c2ccc(OC(F)F)cc2)cc(NC(=O)C2CC2)n1 [Example I-030]		2.83	2.94				90%	83%	100%	100%	100%	100%					
CCCCNC(=O)c1cc(-c2ccc(OC(F)(F)F)cc2)cc(NC(=O)C2CC2)n1 [Example I-113]	4.18	4.06					100%	83%	100%		100%	100%					
N#Cc1ccc(CNC(=O)c2cc(-c3ccc(SC(F)(F)F)cc3)cc(NC(=O)C3CC3)n2)cc1 [Example I-052]		4.01	4.19				100%	100%	100%	100%	100%	100%					
N#Cc1ccc(CNC(=O)c2cc(-c3ccc(N(C(F)(F)F)C(F)(F)F)cc3)cc(NC(=O)C3CC3)n2)cc1 [Example I-225]	4.40	4.34					100%	100%	100%	100%	100%	100%					
CC(C)(C#N)NC(=O)c1cc(-c2ccc(OC(F)(F)F)cc2)cc(NC(=O)C2CC2)n1 [Example I-108]		3.64	3.77				90%	100%	83%		83%	100%					
N#Cc1ccc(CNC(=O)c2cc(-c3ccc(Br)cc3)cc(NC(=O)C3CC3)n2)cc1 [Example I-053]		3.61	3.73				100%		100%		100%	95%					
N#Cc1ccc(CNC(=O)c2cc(-c3ccc(OC(F)(F)F)cc3F)cc(NC(=O)C3CC3)n2)cc1 [Example I-124]	3.87	3.78					100%	100%	100%	100%	100%	100%					
N#Cc1cc(F)c(CNC(=O)c2cc(-c3ccc(C(F)(F)C(F)(F)F)c(F)c3)cc(NC(=O)C3CC3)n2)cc1F [Example I-249]			4.51			4.51	100%	100%	100%	100%	100%	100%					
N#Cc1ccc(CNC(=O)c2cc(-c3ccc(C(F)(F)F)cc3)cc(NC(=O)C3CC3)n2)cc1 [Example I-005]			3.73				100%	100%	100%	100%	100%	100%					

Further lines, with some results ahead:

LOGP_HCOOH [1, 6]	LOGP_NEUTRAL [1, 7]	LOGP_HCOOH [1, 8]	chromatographic logP [1, 9]	chromatographic logP ([1]; pH 7.8, LC-MS neutral range, pH 7.8, ammonium hydrogencarbonate/acetonitrile, read-out: log P (neutral))	LOGP_NEUTRAL ([1]; log P (neutral), HPLC reversed-phase column (C 18))	Compound	efficacy (kill in %) [2]	efficacy (caterpillars killed) ([3]; application rate 100 g/ha)	efficacy (caterpillars killed) ([3]; application rate 500 g/ha)	efficacy (beetle larvae killed) ([4]; application rate 100 g/ha)	efficacy (beetle larvae killed) ([4]; application rate 500 g/ha)	efficacy (kill in %) [5]	pest or weed control at 100 g/ha ([3]; application rate 100 g/ha)	pest or weed control at 500 g/ha ([3]; application rate 500 g/ha)	pest or weed control at 100 g/ha ([4]; application rate 100 g/ha)	pest or weed control at 500 g/ha ([4]; application rate 500 g/ha)	pest or weed control at 100 ppm [5]
4.09						N#Cc1ccc(CNC(=O)c2cc(-c3ccc(OC(F)(F)Cl)cc3)cc(NC(=O)C3CC3)n2)cc1 [Example I-190]	100%	100%	100%	100%	100%	100%					
	3.76	3.90	3.9	3.76		N#Cc1ccc(CNC(=O)c2cc(-c3ccc(OC(F)(F)F)cc3)cc(NC(=O)C3CC3)n2)cc1 [Example I-044, N-(4-Cyanobenzyl)-6-[(cyclopropylcarbonyl)amino]-4-[4-(trifluoromethoxy)phenyl]pyridine-2-carboxamide]	100%						100%	100%	100%	100%	100%
	4.50	4.62				O=C(NCc1ccc(C(F)(F)F)cc1)c1cc(-c2ccc(C(F)(F)F)cc2)cc(NC(=O)C2CC2)n1 [Example I-027]	90%	100%	100%	100%	100%	100%					
4.02	3.89					CC(C)C(=O)N(C)c1cc(-c2ccc(OC(F)(F)F)cc2)cc(C(=O)NCc2ccc(C#N)cc2)n1 [Example I-217]	100%	100%	100%		83%	80%					
	3.83					O=C(NCCC(F)(F)F)c1cc(-c2ccc(OC(F)(F)F)cc2)cc(NC(=O)C2CC2)n1 [Example I-176]	100%	100%	100%	100%	100%	100%					
	3.85	3.91				CC(C)C(=O)Nc1cc(-c2ccc(C(F)(F)F)cc2)cc(C(=O)NCc2ccc(C#N)cc2)n1 [Example I-015]	100%	100%	100%	83%	100%	98%					
		3.94				CC(C#N)NC(=O)c1cc(-c2ccc(C(F)(F)C(F)(F)F)c(F)c2)cc(NC(=O)C2CC2)n1 (stereo not shown) [Example I-245]	80%	100%	100%	100%	100%	100%					
